{"source": "patent US20250032525A1", "about": "(priority 2021, published 2025)", "key": {"UO-31": {"test_system": "UO-31", "conditions": "UO-31, NCI-60 database, sulforhodamine B; read-out: Cytotoxic IC50; cited from earlier work"}, "T-47D [1]": {"test_system": "T-47D", "assay": "In vitro cytotoxicity (PrestoBlue)", "conditions": "Homo sapiens, T47D", "method": "(§2) Cells were seeded in 40 μl medium on 384 well plates by an automatic liquid handling machine (Hamilton StarLet) in a density of 2500 cells/well. Adherent cells were cultured for 24 h before the addition of the compounds, while drugs were added to non-adherent cells 2 h after cell seeding. The drugs were serially diluted, and dispensed in an additional 20 μl. Cells were incubated for an additional 72 h, cytotoxicity was assessed by the PrestoBlue viability reagent (Thermo Fisher). Experiments were repeated at least 3 times."}, "MDA-MB-435": {"test_system": "MDA-MB-435", "conditions": "MDA-MB-435, NCI-60 database, sulforhodamine B; read-out: Cytotoxic IC50; cited from earlier work"}, "A498": {"test_system": "A498", "conditions": "A498, NCI-60 database, sulforhodamine B; read-out: Cytotoxic IC50; cited from earlier work"}, "OVCAR-3": {"test_system": "OVCAR-3", "conditions": "OVCAR-3, NCI-60 database, sulforhodamine B; read-out: Cytotoxic IC50; cited from earlier work"}, "MES-SA": {"test_system": "MES-SA", "assay": "In vitro cytotoxicity", "format": "cell-based", "conditions": "Homo sapiens", "from_the_text": "(§1) Experiments were repeated at least 3 times."}, "MES-SA/Dx5": {"test_system": "MES-SA/Dx5", "assay": "In vitro cytotoxicity", "format": "cell-based", "conditions": "Homo sapiens", "from_the_text": "as §1"}, "T-47D [2]": {"test_system": "T-47D", "conditions": "NCI-60 database, sulforhodamine B, read-out: Cytotoxic IC50; cited from earlier work"}, "PANC-1": {"test_system": "PANC-1", "conditions": "PANC-1, from Varbanov et al. (2017), PrestoBlue; read-out: Cytotoxic IC50; cited from earlier work"}, "MCF7 [3]": {"test_system": "MCF7", "conditions": "MCF7, NCI-60 database, sulforhodamine B; read-out: Cytotoxic IC50; cited from earlier work"}, "PC-3": {"test_system": "PC-3", "conditions": "PC-3, NCI-60 database, sulforhodamine B; read-out: Cytotoxic IC50; cited from earlier work"}, "KM12": {"test_system": "KM12", "conditions": "KM12, NCI-60 database, sulforhodamine B; read-out: Cytotoxic IC50; cited from earlier work"}, "HOP-62": {"test_system": "HOP-62", "conditions": "HOP-62, NCI-60 database, sulforhodamine B; read-out: Cytotoxic IC50; cited from earlier work"}, "HL-60(TB)": {"test_system": "HL-60(TB)", "conditions": "NCI-60 database, sulforhodamine B, read-out: Cytotoxic IC50; cited from earlier work"}, "HS 578T": {"test_system": "HS 578T", "assay": "In vitro cytotoxicity (PrestoBlue)", "conditions": "Homo sapiens", "method": "as §2"}, "CCRF-CEM": {"test_system": "CCRF-CEM", "conditions": "NCI-60 database, sulforhodamine B, read-out: Cytotoxic IC50; cited from earlier work"}, "HT29 [4]": {"test_system": "HT29", "conditions": "HT29, NCI-60 database, sulforhodamine B; read-out: Cytotoxic IC50; cited from earlier work"}, "RXF 393": {"test_system": "RXF 393", "conditions": "RXF 393, NCI-60 database, sulforhodamine B; read-out: Cytotoxic IC50; cited from earlier work"}, "MES-SA xenografts": {"test_system": "MES-SA xenografts", "assay": "MES-SA xenograft tumors in mice", "format": "in vivo, NSG mice", "conditions": "MES-SA derived tumors; DOX 2 mg/kg iv. once per week", "procedure": "2×10^6 cells from each cell line in 200 μl serum-free culture media DMEM were inoculated into NOD.Cg-Prkdc^scid Il2rg^tm1Wjl/SzJ (NSG) mice subcutaneously in the left flank and treatment was initiated when tumors reached 200 mm^3. Mice were treated with saline (n=3 per each cell lines). […] The size of the tumors was measured every second day with a digital caliper."}, "MDA-MB-231 [5]": {"test_system": "MDA-MB-231", "conditions": "MDA-MB-231, NCI-60 database, sulforhodamine B; read-out: Cytotoxic IC50; cited from earlier work"}, "COLO 205": {"test_system": "COLO 205", "conditions": "COLO 205, NCI-60 database, sulforhodamine B; read-out: Cytotoxic IC50; cited from earlier work"}, "SW-620": {"test_system": "SW-620", "conditions": "SW-620, NCI-60 database, sulforhodamine B; read-out: Cytotoxic IC50; cited from earlier work"}, "BT-549": {"test_system": "BT-549", "assay": "In vitro cytotoxicity (PrestoBlue)", "conditions": "Homo sapiens", "method": "as §2"}, "[6]": {"test_system": "panel of cell lines of various tissue of origin", "assay": "In vitro cytotoxicity, panel of cell lines (PrestoBlue)", "format": "cell-based, human", "conditions": "for IC50: Homo sapiens", "from_the_text": "as §1"}, "MCF7 [7]": {"test_system": "MCF7", "assay": "In vitro cytotoxicity (PrestoBlue)", "conditions": "Homo sapiens, MCF7, 72 h, read-out: Cytotoxic IC50", "method": "as §2"}, "[8]": {"test_system": "HT-29 human colon adenocarcinoma cells", "conditions": "reported by Mező; cited from earlier work"}, "HT29 [9]": {"test_system": "HT29", "assay": "In vitro cytotoxicity (PrestoBlue)", "format": "cell-based, human", "conditions": "HT29, 72 h, read-out: Cytotoxic IC50", "from_the_text": "as §1"}, "HCT-15": {"test_system": "HCT-15", "assay": "In vitro cytotoxicity (PrestoBlue)", "format": "cell-based, human", "conditions": "HCT-15, 72 h, read-out: Cytotoxic IC50", "from_the_text": "as §1"}, "MDA-MB-231 [10]": {"test_system": "MDA-MB-231", "assay": "In vitro cytotoxicity (PrestoBlue)", "conditions": "Homo sapiens, MDA-MB-231, 72 h, read-out: Cytotoxic IC50", "method": "as §2"}}, "note": "Like-named read-outs stand apart in the source and are kept apart here."}
{"smiles": "COc1cccc2c1C(=O)c1c(O)c3c(c(O)c1C2=O)C[C@@](O)(C(=O)CO)C[C@@H]3O[C@H]1C[C@H](N)[C@H](O)[C@H](C)O1", "note": "[DOX, doxorubicin]", "values": [{"measurement": "IC50", "setting": "UO-31", "value": 553, "unit": "nM"}, {"measurement": "IC50", "setting": "T-47D [1]", "value": 30, "unit": "nM"}, {"measurement": "IC50", "setting": "MDA-MB-435", "value": 258, "unit": "nM"}, {"measurement": "IC50", "setting": "A498", "value": 85.5, "unit": "nM"}, {"measurement": "IC50", "setting": "OVCAR-3", "value": 335, "unit": "nM"}, {"measurement": "IC50", "setting": "MES-SA; presence of 1 μM tariquidar, read-out: IC50 + TQ", "value": 20, "unit": "nM"}, {"measurement": "IC50", "setting": "MES-SA; read-out: IC50", "value": 72, "unit": "nM"}, {"measurement": "IC50", "setting": "MES-SA/Dx5; MES-SA/Dx5, read-out: IC50", "value": 2880, "unit": "nM"}, {"measurement": "IC50", "setting": "MES-SA/Dx5; MES-SA/Dx5, presence of 1 μM tariquidar, read-out: IC50 + TQ", "value": 20, "unit": "nM"}, {"measurement": "IC50", "setting": "T-47D [2]", "value": 83, "unit": "nM"}, {"measurement": "IC50", "setting": "PANC-1", "value": 460, "unit": "nM"}, {"measurement": "IC50", "setting": "MCF7 [3]", "value": 15.6, "unit": "nM"}, {"measurement": "IC50", "setting": "PC-3", "value": 246, "unit": "nM"}, {"measurement": "IC50", "setting": "KM12", "value": 223, "unit": "nM"}, {"measurement": "IC50", "setting": "HOP-62", "value": 60.4, "unit": "nM"}, {"measurement": "IC50", "setting": "HL-60(TB)", "value": 62.4, "unit": "nM"}, {"measurement": "IC50", "setting": "HS 578T", "value": 80, "unit": "nM"}, {"measurement": "IC50", "setting": "CCRF-CEM", "value": 37.2, "unit": "nM"}, {"measurement": "IC50", "setting": "HT29 [4]", "value": 171, "unit": "nM"}, {"measurement": "IC50", "setting": "RXF 393", "value": 160, "unit": "nM"}, {"measurement": "Overall survival", "setting": "MES-SA xenografts", "value": "increased the overall survival"}, {"measurement": "IC50", "setting": "MDA-MB-231 [5]", "value": 383, "unit": "nM"}, {"measurement": "IC50", "setting": "COLO 205", "value": 158, "unit": "nM"}, {"measurement": "IC50", "setting": "SW-620", "value": 70.1, "unit": "nM"}, {"measurement": "IC50", "setting": "BT-549; BT-549", "value": 20, "unit": "nM"}]}
{"smiles": "COc1cccc2c1C(=O)c1c(O)c3c(c(O)c1C2=O)C[C@@](O)(C(C)=O)C[C@@H]3O[C@H]1C[C@H]2[C@H](OC3CCCN32)[C@H](C)O1", "note": "(stereo partly shown) [PyDau, 2-deamino-2-pyrrolino-daunorubicin]", "values": [{"measurement": "IC50", "setting": "T-47D [1]; 72 h, read-out: Cytotoxic IC50", "value": 4.25, "unit": "nM"}, {"measurement": "IC50", "setting": "[6]; average IC50 within the breast group, read-out: Cytotoxic IC50, av. breast", "value": 3.23, "unit": "nM"}, {"measurement": "IC50", "setting": "[6]; average IC50 within the colorectal group, read-out: Cytotoxic IC50, av. colorectal", "value": 3.39, "unit": "nM"}, {"measurement": "IC50", "setting": "[6]; average IC50 within the leukaemia group, read-out: Cytotoxic IC50, av. leukaemia", "value": 0.57, "unit": "nM"}, {"measurement": "IC50", "setting": "[6]; average IC50 within the lung group, read-out: Cytotoxic IC50, av. lung", "value": 4.21, "unit": "nM"}, {"measurement": "IC50", "setting": "[6]; average IC50 within the melanoma group, read-out: Cytotoxic IC50, av. melanoma", "value": 4.08, "unit": "nM"}, {"measurement": "IC50", "setting": "[6]; average IC50 within the ovarian group, read-out: Cytotoxic IC50, av. ovarian", "value": 1.43, "unit": "nM"}, {"measurement": "IC50", "setting": "[6]; average IC50 within the pancreatic group, read-out: Cytotoxic IC50, av. pancreatic", "value": 3.23, "unit": "nM"}, {"measurement": "IC50", "setting": "[6]; average IC50 within the prostate group, read-out: Cytotoxic IC50, av. prostatic", "value": 1.93, "unit": "nM"}, {"measurement": "IC50", "setting": "[6]; average IC50 within the renal group, read-out: Cytotoxic IC50, av. renal", "value": 5.2, "unit": "nM"}, {"measurement": "IC50", "setting": "[6]; panel of cell lines, FIG. 1, read-out: IC50 values ranging across every cell line of the panel", "value": "0.23 to 14.3", "unit": "nM"}, {"measurement": "IC50", "setting": "[6]; panel of cell lines, typical range, read-out: IC50 values, typically", "value": "1 to 10", "unit": "nM"}, {"measurement": "Effectiveness against multidrug resistant cells", "setting": "[6]; Pgp expressing multidrug resistant HCT-15 and NCI/ADR-RES cells", "value": "effective"}, {"measurement": "IC50", "setting": "MCF7 [7]", "value": 5.73, "unit": "nM"}, {"measurement": "IC50", "setting": "MES-SA", "value": 1.35, "unit": "nM"}, {"measurement": "IC50", "setting": "MES-SA/Dx5; MES-SA/Dx5", "value": 2.51, "unit": "nM"}, {"measurement": "IC50", "setting": "[8]", "value": 0.2, "unit": "nM"}, {"measurement": "IC50", "setting": "HS 578T; 72 h, read-out: Cytotoxic IC50", "value": 1.77, "unit": "nM"}, {"measurement": "IC50", "setting": "HT29 [9]", "value": 3.53, "unit": "nM"}, {"measurement": "IC50", "setting": "HT29 [9]; Homo sapiens, HT-29, 72 h", "value": 3.05, "unit": "nM"}, {"measurement": "IC50", "setting": "HCT-15", "value": 2.42, "unit": "nM"}, {"measurement": "IC50", "setting": "HCT-15; Homo sapiens", "value": 2.86, "unit": "nM"}, {"measurement": "IC50", "setting": "MDA-MB-231 [10]", "value": 1.09, "unit": "nM"}, {"measurement": "IC50", "setting": "BT-549; BT-549, 72 h, read-out: Cytotoxic IC50", "value": 4.68, "unit": "nM"}]}
